Columns and labels:
[1] = Hygroscopicity study by dynamic vapor sorption (DVS); format: physicochemical; settings: 25° C. and 80% RH
Protocol: • Instrument model: SMS DVS Intrinsic dynamic vapor sorption instrument • Test conditions: A sample (10-15 mg) is taken and placed in a DVS sample tray for testing.
Detailed DVS Parameters are as Follows: • Temperature: 25° C. • Balance: dm/dt=0.01%/min (shortest: 10 min, longest: 180 min) • Drying: at 0% RH for 120 min • RH (%) test gradient: 10% • RH (%) test gradient range: 0%-90%-0%
Hygroscopicity Assessment is Classified as Follows:
SMS DVS Intrinsic Dynamic Vapor Sorption Instrument

[2] = Solid stability experiment, high temperature and high humidity (XRPD); format: physicochemical
From the text: For samples placed under high temperature and high humidity, use aluminum foil to seal the bottle, and prick some holes on the aluminum foil to ensure that the sample can fully contact with the ambient air. The samples placed under different conditions were sampled for XRPD detection on Days 5 and 10, and the test results were compared with the initial test results on Day 0.

[3] = Solid stability study, long-term conditions (XRPD); format: physicochemical; settings: for Crystal form (XRPD): 3 months
Protocol: The flasks were placed under 40° C./75% RH conditions for 3 months or under 25° C./60% RH conditions for 3 months, then sampled for XRPD detection, and the detection results were compared with the initial test results of Day 0.

RET = RET (Homo sapiens, UniProt P07949); assay: In vitro enzyme activity test, RET kinase; format: biochemical; settings: ATP 20 μM
Chain of RET (P07949 29-1114): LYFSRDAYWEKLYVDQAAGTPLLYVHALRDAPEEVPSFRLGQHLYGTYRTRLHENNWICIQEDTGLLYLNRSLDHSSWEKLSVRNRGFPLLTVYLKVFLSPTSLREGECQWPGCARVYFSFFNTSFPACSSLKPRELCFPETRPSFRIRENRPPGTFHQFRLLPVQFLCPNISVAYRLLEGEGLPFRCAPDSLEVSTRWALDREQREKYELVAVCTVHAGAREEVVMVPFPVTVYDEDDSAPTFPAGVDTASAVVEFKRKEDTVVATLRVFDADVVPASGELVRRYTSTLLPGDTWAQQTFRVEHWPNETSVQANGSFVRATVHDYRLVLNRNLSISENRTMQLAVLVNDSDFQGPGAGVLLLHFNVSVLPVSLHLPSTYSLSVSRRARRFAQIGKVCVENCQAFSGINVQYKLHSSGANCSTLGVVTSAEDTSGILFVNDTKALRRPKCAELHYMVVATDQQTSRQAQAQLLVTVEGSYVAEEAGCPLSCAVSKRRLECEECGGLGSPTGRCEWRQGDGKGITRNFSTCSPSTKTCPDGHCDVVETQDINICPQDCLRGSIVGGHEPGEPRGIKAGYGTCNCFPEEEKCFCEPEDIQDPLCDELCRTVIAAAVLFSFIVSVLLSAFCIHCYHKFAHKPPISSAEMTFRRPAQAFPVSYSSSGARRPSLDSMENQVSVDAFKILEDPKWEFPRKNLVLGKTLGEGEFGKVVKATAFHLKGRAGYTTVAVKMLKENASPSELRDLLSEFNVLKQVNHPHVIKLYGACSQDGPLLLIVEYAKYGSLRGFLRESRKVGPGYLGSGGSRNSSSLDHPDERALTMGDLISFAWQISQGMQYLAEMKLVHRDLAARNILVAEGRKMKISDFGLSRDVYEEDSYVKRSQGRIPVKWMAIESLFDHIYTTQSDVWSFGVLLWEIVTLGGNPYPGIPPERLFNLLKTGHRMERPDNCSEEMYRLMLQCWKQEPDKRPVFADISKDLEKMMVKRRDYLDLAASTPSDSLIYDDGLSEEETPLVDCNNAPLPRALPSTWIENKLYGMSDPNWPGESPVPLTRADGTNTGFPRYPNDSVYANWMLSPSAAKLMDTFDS
Protocol: (§1) The enzyme activity was experimentally detected by Z'-LYTE™ kinase test, and the inhibitory effect of the compound on RET and RET (V804M) kinase was evaluated with the IC50 value of the compound as an indicator. The concentration of the compound used for the RET and RET (V804M) kinase test was diluted by a factor of 3, giving 10 concentrations from 3 μM to 0.152 nM. The content of DMSO in the detection reaction was 1%. Basic reaction buffer, 20 mM hydroxyethyl piperazine-ethanesulfonic acid (Hepes) (pH 7.5) buffer, 10 mM MgCl2, 1 mM ethylene glycol bis(aminoethyl ether)tetraacetic acid (EGTA), 0.02% polyoxyethylene dodecyl ether (Brij35), 0.02 mg/mL bovine serum protein, 0.1 mM Na3VO4, 2 mM dithiothreitol (DTT) and 1% DMSO. The compound to be tested was dissolved in 100% DMSO system and diluted to 10 mM for use. Integra Viaflo Assist was used for solution dilution. Test conditions: The concentration of RET enzyme was […], the concentration of the peptide substrate CHKtide was 1000 μM, and the concentration of ATP was 20 μM; and the concentration of RET (V804M) enzyme was […], the concentration of substrate peptide was 1000 μM, and the concentration of ATP was 30 μM. […]. Phosphoric acid with a concentration of 0.5% was added to the kinase reaction solution to stop the reaction, and Envision instrument was used for plate reading. […]

RET (V804M) = RET (V804M) (Homo sapiens, UniProt P07949, V804M); assay: In vitro enzyme activity test, RET (V804M) kinase; format: biochemical; settings: ATP 30 μM
Chain of RET (V804M) (P07949 29-1114 V804M): as the sequence (P07949 29-1114) above, with V776M counted along it
Protocol: as §1

[4] = Pharmacokinetic evaluation in mice (IV and PO); format: in vivo; settings: mouse, plasma, female Balb/c mice
Protocol: Experimental procedure: A 0.1 mg/mL clear solution of the test compound in the corresponding solvent medium (see Table 22) was injected into female Balb/c mice (fasting overnight, 7-9 weeks old) via tail vein at a dose of 0.2 mg/kg. About 30 μL of blood was collected from jugular vein or tail vein at 0.0833, 0.25, 0.5, 1.0, 2.0, 4.0, 8.0 and 24 h after intravenous administration. 0.2 mg/mL of the test compound suspended in the corresponding solvent medium (see Table 22) was given to female Balb/c mice (fasting overnight, 7-9 weeks old) by gavage at a dose of 2 mg/kg. The experimental conditions were detailed in Table 22. At 0.0833, 0.25, 0.5, 1.0, 2.0, 4.0, 6.0, 8.0 and 24 h after oral administration, about 30 μL of blood was collected from the jugular vein or tail vein of the female Balb/c mice. The blood was placed in an anticoagulant tube in which EDTA-K2 had been added, and plasma was separated by centrifugation. The plasma concentration was determined by LC-MS/MS method, and the relative pharmacokinetic parameters were calculated using WinNonlin™ Version 6.3 (Pharsight, Mountain View, CA) pharmacokinetic software by non-compartment model linear logarithmic trapezoidal method. [table]

[5] = system: Ba/F3-CCDC6-RET cell xenograft tumor model; assay: Analysis of tumor growth inhibition (TGI); format: in vivo, BALB/c nude female mice; settings: 10 mg/kg D0-D13 / 5 mg/kg D14-D17 / 2.5 mg/kg D18-D28, BID
Protocol: Ba/F3-CCDC6-RET cell strain was cultured using 1640 medium (Biological Industries)+10% fetal bovine serum (BI)+1% double antibody (Penicillin Streptomycin solution, Coring, USA) at 37° C. with 5% CO2 and subcultured twice a week. When the cell saturation is 80-90%, cells were collected, counted, and inoculated subcutaneously into the right axillary of BALB/c nude female mice (6-8 weeks). After the inoculation was completed, the tumor growth status was observed day by day. When the average tumor volume reached about 165.77 mm^3, the mice were randomly divided into groups, with 6 mice per group, and administration was started.
The health status and death of the animals were detected daily. Routine examinations included tumor growth, activity, diet, weight, eyes, hair and other abnormal behaviors of the animals, and the tumor volume and weight were measured twice a week (Tuesday and Friday).
The inhibitory effect of the compound on tumor growth was evaluated by the relationship between tumor volume and time. The tumor volume was measured by vernier caliper, with the formula being TV=0.5 a×b^2, wherein, “a” was the long diameter of the tumor and “b” was the short diameter of the tumor. […]
it was calculated by the following formula: […]

COc1ccc(CN2C3CC2CN(c2cnc(-c4cc(C5=CCOCC5)cn5ncc(C#N)c45)cn2)C3)cn1 [listing 1 of 2 here]
Classification of hygroscopicity [1]: slightly hygroscopic | ΔW (hygroscopic weight gain) [1]: 0.8% | Crystal form (XRPD) ([2]; High humidity (room temperature/relative humidity 92.5%, open), Day 5): Crystal form A | Crystal form (XRPD) ([2]; High humidity (room temperature/relative humidity 92.5%, open), Day 10): Crystal form A | Crystal form (XRPD) ([2]; High temperature (60° C., open), Day 5): Crystal form A | Crystal form (XRPD) ([2]; High temperature (60° C., open), Day 10): Crystal form A | Solid stability (in words) ([2]; high temperature and high humidity): good stability | Crystal form (XRPD) ([3]; 25° C./60% RH): Crystal form A | Crystal form (XRPD) ([3]; 40° C./75% RH): Crystal form A | Crystal form change (in words) ([3]; all stability conditions (40° C./75% RH, 25° C./60% RH, 3 months)): no crystal form change | Solid stability (in words) ([3]; long-term conditions): good stability

COc1ccc(CN2C3CC2CN(c2cnc(-c4cc(C5=CCOCC5)cn5ncc(C#N)c45)cn2)C3)cn1 [listing 2 of 2 here]
IC50 (RET): 0.72 nM | IC50 (RET (V804M)): 5.86 nM | AUC(0-t) ([4]; IV 0.2 mg/kg): 2.79 µM·h | clearance ([4]; IV 0.2 mg/kg, read-out: Cl (plasma clearance)): 2.3 mL/min/kg | half-life ([4]; IV 0.2 mg/kg, read-out: T1/2 (elimination half-life) (converted)): 2.6 h | Vd ([4]; IV 0.2 mg/kg, read-out: Vdss (apparent steady-state distribution volume)): 0.5 L/kg | AUC(0-t) ([4]; PO 2 mg/kg): 26.9 µM·h | Cmax ([4]; PO 2 mg/kg): 5.34 µM | Tmax ([4]; PO 2 mg/kg): 2 h | TGI % (tumor volume on Day 23 after administration) [5]: 98%
